Source: paper PMC10597453, “Novel inhibitors that target bacterial virulence identified via HTS against intra-macrophage survival of Shigella flexneri” (mSphere, 2023)
Converted amounts (≈) assume the structure as drawn. Where two headings read alike, the source gives them in different places.

Experiments:
[1] = test system: S. flexneri 2457T; assay: Shigella antibacterial assay (resazurin); format: cell-based, Shigella flexneri; conditions: for MIC90: Shigella flexneri, S. flexneri 2457T, resazurin assay
Description: An antibacterial assay against S. flexneri 2457T was performed according to the previously described protocol ([40]). The antibacterial assay was used to determine the MIC90 values of potential inhibitors for S. flexneri 2457T. The assay measures the effect of compounds on the bacteria using resazurin (Thermo Fisher Scientific) measurement as surrogate of bacterial viability. Briefly, to perform the extracellular dose responses, compounds were pre-dispensed in DMSO, and threefold serial dilutions were made for each compound into 384-well plate format. Bacterial inoculum for the assay was prepared in MH medium, resulting at 1 × 10^6 CFU/mL, and 5 µL of this culture was dispensed per well. Then, plates were incubated at 37°C overnight. The resazurin reagent (10 µL) was added to each well followed by an incubation at RT and darkness for 3 hours. The fluorescence intensity of the assay plates was measured using microplate reader (EnVision, PerkinElmer). For MIC90 determination, data were normalized by using DMSO at a final concentration of 0.5% as the negative control (100% bacterial growth) and moxifloxacin at a final concentration of 20 µM as the positive control (0% bacterial growth). The experiment was done in duplicate.

[2] = test system: S. flexneri 2457T-nl in THP-1 macrophages; assay: Shigella intra-macrophage survival dose-response assay (luciferase readout); conditions: for IC50: Shigella flexneri
Description: The experimental protocol for the Shigella intra-macrophage survival screen is divided into three time segments: (i) THP-1 macrophage and bacteria preparation 1 day prior to compound screen assay, (ii) THP-1 differentiation, invasion, gentamicin treatment, dispensing of infected cells onto plates pre-dispensed with compounds to be tested, and the beginning of their incubation performed on the same day, and (iii) dispensing of the Nano-Luc substrate and luminescence readout after 18 hours of incubation.
The assay was adapted to the 1,536-well plate format for the HTS. A multidrop dispenser with the small tube metal tip cassette (Thermo Fisher Scientific) was used to seed 5 µL of the cell suspension to plates pre-dispensed with compounds to be tested that were transferred to RT 1–1.5 hours before adding infected cells. Plates were incubated for 18 hours at 37°C in a humidified atmosphere with 5% CO2.
After incubation, the bacterial count is quantified by luminescence readout. Luminescence correlated linearly with the number of viable bacteria. The Nano-Luc substrate solution was prepared according to the manufacturer (Nano-Glo Luciferase Assay System, Promega, Madison, WI, USA). A multidrop dispenser with the small tube metal tip cassette (Thermo Fisher Scientific) was used to dispense 2 µL of substrate per well, and plates were stored in the dark prior to reading. Luminescence was read (0.1 s/well) on a microplate reader (EnVision, PerkinElmer) after 30 minutes of incubation at RT.
The dose-response assay was performed following the above protocol using different plate formats.

[3] = test system: Shigella propagation in Caco2 cells; assay: Inhibition of Shigella propagation in Caco2 cells assay; format: cell-based, Shigella flexneri; conditions: for IC50: INCACO2CELLS, Caco-2
Description: The inhibition of Shigella propagation in Caco2 cells assay was performed following the previously described protocol based on microcarrier cell culture which models the in vivo three-dimensional environment with the minor modifications. This protocol will be described in a forthcoming paper (V. Phat, A. Lim, S. Lozano, C. De Cozar-Gallardo, M. Castellote-Alvaro, J. Rodrigues, A. Villegas, D. Alvarez, E. Alvaro, L. Ballell-Pages, S. Baker, unpublished data) and is available upon request (see Data Availability Statement).

[4] = target: T1, Nano-Luc reporter (S. flexneri 2457T-nl reporter strain) (Oplophorus gracilirostris, UniProt Q9GV45, A31E/A60N/A81I/F95D/I117V/K70R/L54V/L99Q/M102K/N193R/P142E/Q151K/Q38R/Q45L/V71I/Y165I); assay: Nano-Luc inhibition (assay readout interference); format: cell-based
T1 construct: expressed in transfected cells; host or cells: Shigella flexneri serotype 2a strain 2457T carrying plasmid pMK-RQ-nl
T1 sequence (Q9GV45 28-196 with tags or gaps with the stated changes limits assumed): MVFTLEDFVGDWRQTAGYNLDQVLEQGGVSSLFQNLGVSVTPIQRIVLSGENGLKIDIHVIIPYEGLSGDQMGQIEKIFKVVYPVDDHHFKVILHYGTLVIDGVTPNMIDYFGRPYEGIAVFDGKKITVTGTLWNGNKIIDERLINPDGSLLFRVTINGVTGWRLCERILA

[5] = THP-1, read-out: Shigella Intra-macrophage Survival IC50
[6] = THP-1, 18 h, read-out: Survival inhibition IC50
[7] = read-out: Nano-Luc interference IC50, S. flexneri 2457T-nl reporter strain in MH medium, 18 hours

## CC1(C)S[C@@H]2[C@H](/N=C/N3CCCCCC3)C(=O)N2[C@H]1C(=O)O [Mecillinam, mecillinam, reference compound]
[1]
  MIC90: 0.2 µM (≈ 0.0651 µg/mL)
[2]; [5]
  IC50: 700 nM

## N#Cc1ccc(C(=O)Nc2nnc(-c3ccncc3)s2)cc1 [AN2-45-02]
[2]; [6]
  IC50: 890 nM
[3]
  IC50: 14000 nM

## O=C(O)c1cn(C2CC2)c2cc(N3CCNCC3)c(F)cc2c1=O [Ciprofloxacin, ciprofloxacin, reference compound]
[1]
  MIC90: 0.07 µM (≈ 0.0232 µg/mL)
[2]; [5]
  IC50: 7 nM

## Fc1ccc(-c2oncc2-c2nnnn2-c2ccccc2)c(F)c1 [PT-297-01]
[2]; [6]
  IC50: 430 nM
[4]
  IC50: 8300 nM
[3]
  IC50: 2100 nM

## Cc1cccc(-n2cc(C(=O)c3cc(F)ccc3O)cc(C#N)c2=O)c1 [AN1-152-09]
[2]; [6]
  IC50: 730 nM
[3]
  IC50: 10000 nM

## COc1ccc2nc(NS(=O)(=O)c3cccc(C#N)c3)sc2c1 [DS-64-06]
[2]; [6]
  IC50: 440 nM
[4]
  IC50: 9500 nM
[3]
  IC50: 3100 nM

## Cc1ccc(-n2cc(C(=O)c3cc(F)ccc3O)cc(C#N)c2=O)cc1 [AN1-152-08]
[2]; [6]
  IC50: 430 nM
[3]
  IC50: 1900 nM

## Cc1c(-c2cccs2)[nH]c2c(C#N)cnn2c1=O [AN-5-02]
[2]; [6]
  IC50: 90 nM
[4]
  IC50: 780 nM
[3]
  IC50: 2100 nM

## CCc1cccc(CC)c1NC(=O)c1c(-c2ccccc2)noc1C [Compound S-53-01]
[2]; [6]
  IC50: 170 nM
[4]
  IC50: 1200 nM
[3]
  IC50: 1500 nM

## CC(C)(C)C(=O)OCOC(=O)[C@@H]1N2C(=O)[C@@H](/N=C/N3CCCCCC3)[C@H]2SC1(C)C [Pivmecillinam, pivmecillinam]
[1]; MIC vs intra-macrophage survival IC50
  MIC relative to survival IC50 (times higher): very similar
[1]
  MIC90: 1 µM (≈ 0.44 µg/mL)
[2]; [5]
  IC50: 900 nM

## c1ccc(-n2nnnc2-c2cnoc2-c2cccs2)cc1 [PT-297–03]
[2]; [6]
  IC50: 500 nM
[4]
  IC50: 8100 nM
[3]
  IC50: 3000 nM

## CC[C@H]1OC(=O)[C@H](C)[C@@H](O[C@H]2C[C@@](C)(OC)[C@@H](O)[C@H](C)O2)[C@H](C)[C@@H](O[C@@H]2O[C@H](C)C[C@H](N(C)C)[C@H]2O)[C@](C)(O)C[C@@H](C)CN(C)[C@H](C)[C@@H](O)[C@]1(C)O [Azithromycin, azithromycin, reference compound]
[1]
  MIC90: 10 µM (≈ 7.49 µg/mL)
[2]; [5]
  IC50: 80 nM

## Cc1ccc(-n2cc(C(=O)c3cc(Cl)ccc3O)cc(C#N)c2=O)cc1 [AN1-152-04]
[2]; [6]
  IC50: 570 nM
[3]
  IC50: 6200 nM

## O=C(CN1CCc2ccccc2C1)Nc1cnccc1C(=O)O [Compound S-136-01]
[2]; [6]
  IC50: 620 nM
[4]
  IC50: 3000 nM
[3]
  IC50: 3100 nM

## COc1ccc(N2CCN(c3nc4ncccc4o3)CC2)cc1 [Compound S-281-01]
[2]; [6]
  IC50: 640 nM
[4]
  IC50: 28000 nM
[3]
  IC50: 24000 nM

## N#Cc1ccc(C(=O)Nc2cccc(-c3ccc(CN4CCNCC4)cc3)c2)cc1 [AN-30-01]
[2]; [6]
  IC50: 880 nM
[3]
  Propagation in Caco2 IC50: Inactive

## Cc1ccc(C2=NN(C3=NC(=O)C(CC(=O)Nc4ccccc4)S3)C(c3ccccc3)C2)cc1 (centres unmarked) [Compound S-10-01]
[2]; [6]
  IC50: 410 nM
[4]
  IC50: 11000 nM
[3]
  IC50: 500 nM

## CC(NC(=O)NC(C)c1cccs1)c1ccc2c(c1)OCCO2 (centres unmarked) [Compound S-378-01]
[2]; [6]
  IC50: 1000 nM
[3]
  IC50: 6600 nM

## COc1ccc(-n2cc(C(=O)c3cc(C)ccc3O)cc(C#N)c2=O)cc1 [AN1-152-07]
[2]; [6]
  IC50: 210 nM
[4]
  IC50: 27000 nM
[3]
  IC50: 200 nM

## COc1ccc(S(=O)(=O)Nc2ccc(Cl)cc2F)cc1[N+](=O)[O-] [DS2-187-03]
[2]; [6]
  IC50: 700 nM
[3]
  IC50: 3000 nM

## Cc1ccc(NC(=O)CC2SC(N3N=C(c4cccs4)CC3c3ccccc3)=NC2=O)cc1 (centres unmarked) [Compound S-10-03]
[2]; [6]
  IC50: 620 nM
[3]
  IC50: 1100 nM

## Fc1ccc(-c2oncc2-c2nnnn2-c2ccccc2)cc1F [PT-297-02]
[2]; [6]
  IC50: 270 nM
[4]
  IC50: 4900 nM
[3]
  IC50: 1200 nM

## COc1ccc(CCNC(=O)c2nc(O)c3nnn(Cc4ccc(F)cc4)c3n2)cc1OC [Compound S-169-01]
[2]; [6]
  IC50: 590 nM
[4]
  IC50: 12000 nM
[3]
  IC50: 21000 nM

## CN(C(=O)Cc1cccs1)C1(C(=O)NC2CCCCC2)CCCCC1 [Compound S-185-01]
[2]; [6]
  IC50: 700 nM
[4]; [7]
  IC50: 3800 nM
[3]
  IC50: 4300 nM

## Cc1nn(-c2ccccc2)c(C)c1S(=O)(=O)Nc1nc2c(s1)CCCC2 [DS-61-01]
[2]; [6]
  IC50: 500 nM
[4]
  IC50: 2200 nM
[3]
  IC50: 2300 nM

## COc1ccc(-n2cc(C(=O)c3cc(Cl)ccc3O)cc(C#N)c2=O)cc1 [AN1-152-06]
[2]; [6]
  IC50: 490 nM
[3]
  IC50: 3900 nM

## Cc1cc(CNC(=O)CCc2c(C)nc3cc(O)nn3c2C)no1 [Compound S-86-01]
[2]; [6]
  IC50: 270 nM
[4]
  IC50: 1700 nM
[3]
  IC50: 1000 nM

## Cc1ccccc1-c1c(C#N)c(N)nc(SCc2ccccc2)c1C#N [AN1-77-01]
[2]; [6]
  IC50: 790 nM
[3]
  IC50: 14000 nM

## N#Cc1cc(C(=O)c2ccccc2O)cn(C2CCCC2)c1=O [AN1-152-03]
[2]; [6]
  IC50: 480 nM
[4]
  IC50: 62000 nM
[3]
  IC50: 1700 nM

## N#Cc1cc(C(=O)c2ccccc2O)cn(-c2ccccn2)c1=O [AN1-152-01]
[2]; [6]
  IC50: 310 nM
[4]
  IC50: 25000 nM
[3]
  IC50: 2700 nM

## Cc1ncccc1Oc1ncc(Cl)cc1S(=O)(=O)Nc1cccc(Cl)c1 [DS-90-01]
[2]; [6]
  IC50: 1200 nM
[4]
  IC50: 65000 nM
[3]
  IC50: 10000 nM

## N#Cc1cc(C(=O)c2ccccc2O)cn(-c2ccc(Cl)cc2)c1=O [AN1-152-02]
[2]; [6]
  IC50: 3.9 nM
[4]
  IC50: 3700 nM
[3]
  IC50: 300 nM

## Cc1noc2ncn(Cc3nc(Cc4ccccc4F)no3)c(=O)c12 [Compound S-82-01]
[2]; [6]
  IC50: 1000 nM
[4]
  IC50: 19000 nM
[3]
  IC50: 19000 nM

## O=S(=O)(Nc1ccccc1C(F)(F)F)c1ccc(-c2ccc(F)cc2)s1 [DS1-32-05]
[2]; [6]
  IC50: 560 nM
[4]
  IC50: 3000 nM
[3]
  IC50: 3100 nM

## Cc1ccc(-n2cc(C(=O)c3cc(C)ccc3O)cc(C#N)c2=O)cc1 [AN1-152-05]
[2]; [6]
  IC50: 100 nM
[4]
  IC50: 12000 nM
[3]
  IC50: 300 nM

## CC(C)c1noc2ncc(C(=O)c3ccccc3O)cc12 [Compound S-316-01]
[2]; [6]
  IC50: 1300 nM
[3]
  IC50: 1900 nM

## CCN(C(=O)Cn1c(-c2nonc2N)nc2ccccc21)c1ccccc1 [Compound S-134-02]
[2]; [6]
  IC50: 680 nM
[4]
  IC50: 5100 nM
[3]
  IC50: 4900 nM

## CCOc1ccc(-n2cc(C(=O)c3cc(F)ccc3O)cc(C#N)c2=O)cc1 [AN1-152-10]
[2]; [6]
  IC50: 240 nM
[4]
  IC50: 50000 nM
[3]
  Propagation in Caco2 IC50: Inactive

## COc1c(N2C[C@@H]3CCCN[C@@H]3C2)c(F)cc2c(=O)c(C(=O)O)cn(C3CC3)c12 [moxifloxacin, reference compound]
[2]; 20 µM, macrophage permeable positive control
  bacterial survival: no detectable bacterial survival

## COc1ccc(CN(C)S(=O)(=O)c2nnc(NC(=O)c3cccc(Cl)c3)s2)cc1OC [DS-299-02]
[2]; [6]
  IC50: 800 nM
[4]
  IC50: 4600 nM
[3]
  IC50: 2500 nM

## O=S(=O)(Nc1ccc(F)cc1C(F)(F)F)c1ccc(-c2cccs2)s1 [DS1-32-04]
[2]; [6]
  IC50: 410 nM
[4]; [7]
  IC50: 3100 nM
[3]
  IC50: 3800 nM

## COc1ccc(-n2nnnc2SC(C(=O)N(C)C)c2ccccc2)cc1 (centres unmarked) [Compound S-28-01]
[2]; [6]
  IC50: 990 nM
[4]
  IC50: 5000 nM
[3]
  IC50: 4500 nM
